Molecules are shown by their SMILES. Where two headings read alike, the source gives them in different places. Where only a bound is given, the exact number is not on record here.

The test system of one assay is dengue virus serotype II. Kind of assay: BHK-DV2 replication determination (qPCR of viral genome copy number in culture supernatant). The format is cell-based. The conditions noted are these: 96 h, BHK cells infected with DV2 (MOI=0.05), 4 days culture, viral RNA copy number in supernatant by qPCR. How it is done:
(§1) The Inhibitive Activity Test of the Quinazoline Compounds of the Present Invention Against Dengue Virus Serotype II and Hepatitis C Virus of Flaviviridae:
(§2) The test results of the inhibitive activity of the quinazoline compounds of the present invention against dengue virus serotype II and Hepatitis C virus of Flaviviridae are listed in table 1.
BHK-DV2-Replication Determination:
BHK cells were inoculated on a 96-well plate. 24 hours later, DV2 viruses were added to infect for 2 h (MOI=0.05), and then viral liquid was washed away. After fresh culture medium was replaced, compounds with different concentrations were added respectively, including infection control without addition of compounds and normal MK control free from infection. After 4 days culture, the supernatant of culture fluid was sucked and centrifuged at 1000RCF for 5 min to remove the cell precipitate. Virus RNA was extracted from the supernatant by using a kit, and then reverse transcriped to be as cDNA, which was evaluated by qPCR method to determine the copy number of the virogene group in the supernatant.
(§3) The inhibitive effect of the compounds on the copy number of the viruses in the culture supernatant of the BHK infected by DV2 directly reflects the inhibitive effect of the compounds against the generation of progeny viruses. In the HCV detection, the inhibitive effect of the compounds against intracellular replication of the HCV viruses can be visually determined via fluoroscopy. Meanwhile, as the only cell model which can currently be infected in vitro, Huh7.5.1 cell model infected by HCV viruses can maximumly reproduce the infection and replication process of Hepatitis C virus in vivo.
(Real-time PCR tracks product formation cycle by cycle.)

The subject of a further assay is Hepatitis C virus. Briefly: Huh7.5.1-HCV determination (J399EM NS5A-EGFP fluorescence). The format is cell-based.
From the text: as §1, §2
Huh7.5.1-HCV Determination:
Huh7.5.1 cell, which is currently the only cell model which can be in vitro infected by HCV viruses, can be infected by HCV viruses in vitro, and generates infective progeny viruses. J399EM is a HCV full-length mutant strain transfected by EGFP, and can generate viruses which have the same infectivity as wild-type JFH-1. Meanwhile, NS5A-EGFP fusion protein fluorescence can be observed directly in the infected cells by inserting the EGFP coding sequence into NS5A region. In this experiment, Huh7.5.1 cells were inoculated on a 96-well plate and cultured under 5% CO2 at 37° C. for 24 h. Huh7.5.1 cells were infected by J399EM virus supernatant (moi≈0.1). Meanwhile, cell control wells free from infection were included. The infected cells were washed with PBS after 8 h infection. Samples with different concentrations were added into Huh7.5.1 cells infected by J399EM viruses. Each concentration was set double wells, and control well without sample was included. The tested samples were diluted to six gradient concentrations and added respectively, and the cells were cultured for another 72 h. After the cells were treated by the samples for 72 hours, the relative intensity of fluorescence (RFU) was recorded at an excitation wavelength of 488 nm and an emission wavelength of 516 nm on a fluorescent ELISA Reader to detect the inhibition effect of the samples against HCV. The inhibition rate against HCV virus was calculated according to equation.
as §3

The mark [1] stands for this setting: Hepatitis C virus, Huh-7.5.1, 72 h, read-out: Huh7.5.1-HCV (replication) IC50.

Regarding `CCCCCCCCOc1cccc2nc(N)nc(N)c12` [Yhhu-1411, 5-n-octyloxy-2,4-diaminoquinazoline], the figures for the IC50 with dengue virus serotype II and with Hepatitis C virus (setting [1]) were 180 nM and 1570 nM, respectively. For the compound `CC(C)(C)COc1cccc2nc(N)nc(N)c12` [Yhhu-1413, 5-neooamyloxy-2,4-diaminoquinazoline], the IC50 with dengue virus serotype II was found to be 160 nM; in the assay on Hepatitis C virus (setting [1]), 3750 nM. In the same order, the values of `Nc1nc(N)c2c(OC3CCCC3)cccc2n1` [Yhhu-1056, 5-cyclopentyloxy-2,4-diaminoquinazoline] are over 25000 nM and 980 nM. In the same order, the values of `COc1ccc(Oc2cccc3nc(N)nc(N)c23)cc1` [Yhhu-1152, 5-(4-methoxyphenoxy)-2,4-diaminoquinazoline] are 3110 nM and 24700 nM. In the same order, the values of `Nc1nc(N)c2c(OCc3cccnc3)cccc2n1` [Yhhu-1151, 5-(3-pyridinemethoxy)-2,4-diaminoquinazoline] are 430 nM and 7840 nM. On to `CC(C)(C)Oc1cccc2nc(N)nc(N)c12` [Yhhu-1036, 5-tert-butoxy-2,4-diaminoquinazoline], for which the IC50 in the assay with dengue virus serotype II turned out to be 9 nM; in the assay on Hepatitis C virus (setting [1]) it was 1230 nM.

For the compound `Nc1nc(N)c2c(OCc3ccccc3)cccc2n1` [Yhhu-1046, 5-benzyloxy-2,4-diaminoquinazoline], the values for the IC50 in the assay with dengue virus serotype II and in the assay on Hepatitis C virus (setting [1]) were 340 nM and 2360 nM, respectively. The like results for `CC(C)CCOc1cccc2nc(N)nc(N)c12` [Yhhu-1412, 5-isoamyloxy-2,4-diaminoquinazoline] were, in that order, 100 nM and 1740 nM. Regarding `Nc1nc(N)c2c(Oc3cccc(Cl)c3)cccc2n1` [Yhhu-1053, 5-(3-chlorophenoxy)-2,4-diamino quinazoline], the results for the IC50 in the assay on dengue virus serotype II and in the assay on Hepatitis C virus (setting [1]) were 380 nM and 790 nM, respectively. With `NC(=O)c1ncn([C@@H]2O[C@H](CO)[C@@H](O)[C@H]2O)n1` [Ribavirin, reference compound], the IC50 in the assay with Hepatitis C virus (Hepatitis C virus, read-out: half effective inhibitive concentration against HCV virus tested in vitro) was 20000 nM. For the compound `COc1c(C)c2c(c(O)c1C/C=C(\C)CCC(=O)O)C(=O)OC2` [mycoplienolic acid, reference compound], in the assay on Hepatitis C virus (common control compounds, HCV in vitro, read-out: half effective inhibitive concentration against HCV virus tested in vitro), the IC50 was determined as 1250 nM.

For the compound `CCOc1cccc2nc(N)nc(N)c12` [Yhhu-1149, 5-ethoxy-2,4-diaminoquinazoline], the IC50 was 160 nM in the assay with dengue virus serotype II and 3940 nM in the assay with Hepatitis C virus (setting [1]). The like results for `Nc1nc(N)c2c(OCCN3CCCC3)cccc2n1` [Yhhu-1041, 5-(2-(1-pyrrolidinyl)ethoxy)-2,4-diaminoquinazoline] were, in that order, 7130 nM and 12300 nM. For `Nc1nc(N)c2c(OC3CCCCC3)cccc2n1` [Yhhu-1147, 5-cyclohexyloxy-2,4-diaminoquinazoline], the IC50 was 100 nM in the assay with dengue virus serotype II and 4690 nM in the assay with Hepatitis C virus (setting [1]). For the compound `COc1ccccc1Oc1cccc2nc(N)nc(N)c12` [Yhhu-0969, 5-(2-methoxyphenoxy)-2,4-diaminoquinazoline], the IC50 in the assay on dengue virus serotype II was determined as 1120 nM. As for `Nc1nc(N)c2c(Oc3ccccc3)cccc2n1` [Yhhu-0970, 5-phenoxy-2,4-diaminoquinazoline], the IC50 amounted to 430 nM in the assay on dengue virus serotype II and 3180 nM with Hepatitis C virus (setting [1]). The like results for `CCCCOc1cccc2nc(N)nc(N)c12` [Yhhu-1145, 5-n-butoxy-2,4-diaminoquinazoline] were, in that order, 110 nM and 2340 nM. As to `Nc1nc(N)c2c(OC34CC5CC(CC(C5)C3)C4)cccc2n1` [Yhhu-1146, 5 (1-adamantyloxy)-2,4-diaminoquinazoline], the IC50 in the assay on dengue virus serotype II was over 25000 nM; in the assay on Hepatitis C virus (setting [1]), 5130 nM. In the same order, the values of `CC(C)(C)c1ccc(Oc2cccc3nc(N)nc(N)c23)cc1` [Yhhu-1035, 5-(4-tert-butylphenoxy)-2,4-diaminoquinazoline] are 1970 nM and 4750 nM. The like results for `Nc1ccc(Oc2cccc3nc(N)nc(N)c23)cc1` [Yhhu-1150, 5-(4-aminophenoxy)-2,4-diaminoquinazoline] were, in that order, 490 nM and 7250 nM. In turn, `Nc1nc(N)c2c(Oc3ccc(Cl)cc3)cccc2n1` [Yhhu-0968, 5-(4-chlorophenoxy)-2,4-diamino quinazoline] returned an IC50 with dengue virus serotype II of over 5000 nM. Take `COc1cccc2nc(N)nc(N)c12` [Yhhu-0967, 5-methoxy-2,4-diaminoquinazoline]: the IC50 with dengue virus serotype II worked out at 760 nM; with Hepatitis C virus (setting [1]), 5730 nM.

For the compound `Nc1nc(N)c2c(OCC(F)(F)F)cccc2n1` [Yhhu-1148, 5-(2,2,2-trifluoroethoxy-2,4-diaminoquinazoline], the IC50 in the assay on dengue virus serotype II was found to be 40 nM; in the assay on Hepatitis C virus (setting [1]), 3120 nM.

(Values after US9133138B2, “Use of a quinazoline compound in preparing a medicament against flaviviridae virus” (priority 2010, dated 2015).)
